{"source": "patent US20250222108A1", "about": "“MEDICAL AGENT INCLUDING ADJUVANT AND COMPOSITE OF PHOTOSENSITIVE MOLECULE AND MOLECULE BINDING TO CANCER-SPECIFIC CELL SURFACE MOLECULE” (KYOTO UNIVERSITY, priority 2021, published 2025)", "system": "KPC-N cells", "assay": "Antitumor effect by TLR3 ligand, pancreatic cancer model", "format": "in vivo, C57BL/6 mice", "conditions": "50 μg intratumoral on day 8; N=6", "method": "PolyI:C (Poly (I:C) (HMW) VacciGrade™: InvivoGen), which is a TLR3 ligand, was used.\n1.5×10^6 KPC-N cells were subcutaneously transplanted to the back of 6- to 8-week-old C57BL/6 mice, and two groups (each group N=6) of non-treatment group (Control) and polyI:C group were established. To the tumor of the mice on day 8 after subcutaneous transplantation was topically injected (intratumoral administration) 50 μg of polyI:C."}
{"substance": "polyI:C", "values": [{"measurement": "antitumor effect (tumor size)", "value": "no antitumor effect"}]}
